# Reference: PubChem BioAssay (NCI)
#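 Protocol summary: plate cells (96-well), add compound at 5 concentrations, incubate 48 h, interpolate endpoints linearly. GI50: concentration for 50% inhibition of growth. TGI marks complete inhibition of growth.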
# How the values were obtained:
# Assay in all cases: growth of human tumour cells (NCI), 48 h
# [1] = test system: MDA-MB-231 breast
# [2] = test system: OVCAR-5 ovarian
# [3] = test system: EKVX NSCLC
# [4] = test system: SK-MEL-5 melanoma
# [5] = test system: A549 NSCLC
# [6] = test system: T-47D breast
# [7] = test system: NCI-H226 lung
# [8] = test system: ACHN renal
# [9] = test system: PC-3 prostate
# [10] = test system: HCT-116 colon
Structure (SMILES),GI50 [1] [µM],TGI [1] [µM],GI50 [2] [µM],TGI [2] [µM],GI50 [3] [µM],TGI [3] [µM],GI50 [4] [µM],TGI [4] [µM],GI50 [5] [µM],TGI [5] [µM],GI50 [6] [µM],TGI [6] [µM],GI50 [7] [µM],TGI [7] [µM],GI50 [8] [µM],TGI [8] [µM],GI50 [9] [µM],TGI [9] [µM],GI50 [10] [µM],TGI [10] [µM]
CS(=O)(=O)CCNCc1nc(-c2ccc3ncnc(Nc4ccc(OCc5cccc(C(F)(F)F)c5)cc4)c3c2)cs1,12.6,> 25,> 25,> 25,> 20.4,> 25,> 21.6,> 25,> 22,> 25,5.42,> 25,> 25,> 25,> 21.9,> 25,> 23.6,> 25,> 18.7,> 25
COc1cc(-n2cc(-c3ccc(F)cc3)[nH]c2=O)cc(OC)c1OC,49.5,> 100,> 100,> 100,> 100,> 100,> 100,> 100,> 100,> 100,> 100,> 100,> 100,> 100,> 100,> 100,> 100,> 100,> 100,> 100
O=C1Nc2ccccc2/C1=N\[O-].O=C1Nc2ccccc2/C1=N\[O-].[Cu+2],> 100,> 100,> 100,> 100,> 100,> 100,> 100,> 100,> 100,> 100,> 100,> 100,> 100,> 100,> 100,> 100,> 100,> 100,> 100,> 100
Cc1ncc(C(=O)Nc2ccc(CN3CCN(C)CC3)c(C(F)(F)F)c2)cc1C#Cc1cnc(N)c2ccncc12,0.526,2.02,1.45,4.53,1.14,3.38,1.6,2.98,1.78,4.24,1.91,5.88,0.527,14.3,0.303,1.5,2.41,6.76,1.19,2.56
C=CCCCCOc1ccccc1-c1cnc(OCCCCC=C)n1C,5.19,20.3,5.22,23.1,11,44.1,3.69,13.7,3.92,21.9,3.53,29.5,13,28.5,6.8,38.9,5.38,28.9,2.66,11.8
CCOC(=O)Nc1ccc(C)c(NC(=O)OCC)c1,,> 100,,> 100,,> 100,,> 100,,> 100,,> 100,,> 100,,> 100,,> 100,,> 100
O=C(CSc1nc2ccccc2nc1-c1ccccc1)Nc1ccc(F)cc1,34.3,> 100,> 100,> 100,75,> 100,16.5,54.8,49.3,> 100,19.2,99.4,> 100,> 100,41.9,> 100,38.9,> 100,14.1,28.7
O=C(c1ccccc1Br)C(F)(F)F,,> 100,,> 100,,> 100,,> 100,,> 100,,> 100,,> 100,,> 100,,> 100,,> 100
NCCNc1c2c(c(NCCN)c3[nH]ccc13)C(=O)c1ccccc1C2=O,0.109,0.605,0.279,0.96,1.25,3.91,0.178,0.808,0.63,2.53,1.63,> 100,0.198,0.896,0.124,0.706,0.631,2.45,< 0.0261,0.401
COc1cc(Cn2c(-c3ccccc3)c(Cl)c3c2-c2oncc2CC3)cc(OC)c1,11.4,44.9,47,> 100,4.97,> 100,5.5,19.6,8.57,> 100,17.5,> 100,13,43.3,9.31,> 100,7.12,> 100,3.47,14.9
CCCN1C(=O)N(CCC)C2C1NC(=S)N2/N=C/C=C/c1ccccc1OC (stereo not given),2.16,22.5,3.61,> 100,2.22,> 100,0.516,15.9,0.868,> 100,0.376,37,4.17,> 43.9,0.631,81.1,0.424,> 100,0.445,> 100
